Results as given in the supplement of paper PMC5844555.

Experiments:
Test in all cases: 3' UTR reporter interaction score (median-centred robust z-score of log2 firefly/Renilla activity); higher = less repression of the 3' UTR reporter
Conditions in all cases: HEK293T; 48 h
TP53 = system: TP53
Method in brief: (§1)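 Using DharmaFECT Duo, HEK293T cells (10,000/well, 96-well plates) were co-transfected with 2.5 pmol miRNA mimic, 100 ng firefly luc2P reporter containing the gene's 3' UTR and 20 ng Renilla pRL-TK control, and dual-luciferase activity was read 48 h later. The interaction score is the log firefly/Renilla ratio as a per-plate robust z-score (median, median absolute deviation), median-centred per miRNA, averaged over at least two independent screens; lower, more negative values indicate interaction.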

PHF6 = system: PHF6
Method in brief: as §1

MYB = system: MYB
Method in brief: as §1

HRAS = system: HRAS
Method in brief: as §1

ZEB2 = system: ZEB2
Method in brief: as §1

MYC = system: MYC
Method in brief: as §1

EZH2 = system: EZH2
Method in brief: as §1

BRCA2 = system: BRCA2
Method in brief: as §1

FBXW7 = system: FBXW7
Method in brief: as §1

PHOX2B = system: PHOX2B
Method in brief: as §1

MYT1L = system: MYT1L
Method in brief: as §1

NOTCH1 = system: NOTCH1
Method in brief: as §1

MYCN = system: MYCN
Method in brief: as §1

RB1 = system: RB1
Method in brief: as §1

Sequence | 3' UTR reporter interaction score (TP53) | 3' UTR reporter interaction score (PHF6) | 3' UTR reporter interaction score (MYB) | 3' UTR reporter interaction score (HRAS) | 3' UTR reporter interaction score (ZEB2) | 3' UTR reporter interaction score (MYC) | 3' UTR reporter interaction score (EZH2) | 3' UTR reporter interaction score (BRCA2) | 3' UTR reporter interaction score (FBXW7) | 3' UTR reporter interaction score (PHOX2B) | 3' UTR reporter interaction score (MYT1L) | 3' UTR reporter interaction score (NOTCH1) | 3' UTR reporter interaction score (MYCN) | 3' UTR reporter interaction score (RB1)
AGGAAUGUUCCUUCUUUGCC | -0.812 | -0.446 | -0.0682 | 0.683 | 2.6 | 0.63 | -0.309 | -1.4 | -2.13 | 2.32 | -0.098 | -0.469 | -0.0855 | 0.276
UAAGUGCUUCCAUGUUUCAGUGG | -0.245 | 0.57 | -0.991 | 0.114 | 0.969 | -0.0462 | -0.665 | 0.202 | 0.421 | -0.0319 | -1.46 | 0.788 | 0.305 | 0.571
AAAGUAGCUGUACCAUUUGC | 0.1 | -0.00285 | 1.14 | -1.6 | 1.39 | -0.314 | -0.677 | 0.0379 | 0.57 | -0.926 | 0.719 | 1.58 | 0.676 | -0.735
GGCUGGCUCGCGAUGUCUGUUU | 0.4 | 0.0685 | -2.48 | -0.0445 | 0.922 | -0.237 | -0.172 | -2.13 | 0.4 | 0.166 | 1.15 | -0.649 | 0.967 | 0.183
UAACACUGUCUGGUAAAGAUGG | 0.617 | -1.93 | 0.229 | 0.0521 | -7.02 | 0.0647 | -0.173 | -0.392 | -0.104 | -0.774 | -4.79 | -0.447 | 0.21 | 0.257
UGGACGGAGAACUGAUAAGGGU | 0.461 | 0.399 | 0.576 | -0.151 | 0.823 | -0.199 | -0.0404 | 0.362 | 0.0713 | -1.18 | 0.408 | -0.401 | -0.133 | -0.376
CCUCUGGGCCCUUCCUCCAG | 1.37 | 1.9 | 0.205 | 0.196 | 0.525 | -0.307 | -0.302 | 1.66 | -0.553 | -0.825 | -1.13 | -0.555 | 0.2 | 0.604
UGUAAACAUCCUUGACUGGA | -0.0994 | -0.821 | 0.77 | 0.642 | -1.5 | – | -0.145 | 0.0901 | 0.548 | 0.574 | 0.512 | -0.407 | -0.313 | -0.17
GUGAAAUGUUUAGGACCACUAG | 0.19 | 1.07 | -0.192 | -0.276 | 0.105 | – | -0.221 | -0.28 | 0.238 | 0.216 | 0.987 | -0.392 | -0.394 | -0.00504
UUUCAAGCCAGGGGGCGUUUUUC | 1.02 | -0.209 | 0.555 | -0.232 | – | 0.49 | -0.378 | -0.216 | 1.22 | -0.413 | 0.976 | -1.91 | -0.0394 | -0.19
CAAAGUGCUUACAGUGCAGGUAGU | 0.459 | -0.0772 | -0.142 | 0.135 | 1.15 | 0.444 | -0.848 | -0.125 | – | 0.665 | -0.396 | 0.897 | -0.306 | 0.713
UCACUCCUCUCCUCCCGUCUUCU | -0.451 | 0.199 | 0.575 | -0.435 | 1.61 | – | -1.64 | -0.727 | -1.25 | -0.219 | 1.44 | 1.17 | 0.923 | 0.27
CAAAAACCACAGUUUCUUUUGC | -0.323 | 0.268 | -1.54 | -1.1 | -0.847 | 0.0969 | 0.177 | – | -0.0284 | 0.417 | -0.79 | -0.821 | 0.186 | 0.189
AUCACAUUGCCAGGGAUUACC | – | 0.0907 | -0.174 | -0.747 | 1.1 | 0.209 | 0.0796 | -1.56 | -0.221 | 0.2 | 0.363 | -0.965 | 0.139 | 0.534
AGGCACCAGCCAGGCAUUGCUCAGC | 0.444 | 0.574 | 0.348 | -0.411 | -0.849 | -0.313 | 1 | – | -2.35 | -2.66 | 0.327 | -0.1 | -0.343 | 0.342
AACUGGCCUACAAAGUCCCAG | -0.0425 | – | -3.25 | 1.01 | 0.719 | 0.942 | 0.239 | -0.135 | 0.16 | -0.335 | -0.789 | -1.05 | -2.47 | 0.314
AACUGGCCCUCAAAGUCCCGCUUU | – | -1.81 | -3.7 | 1.58 | 0.222 | 0.891 | 0.347 | 0.335 | 0.0369 | 0.301 | -0.278 | -1.04 | -2.37 | 1.12
CCUAGUAGGUGUCCAGUAAGUGU | -0.172 | -0.224 | 0.0319 | -0.971 | – | 0.727 | -0.633 | -0.873 | -0.251 | 0.805 | 0.0095 | 0.26 | 0.245 | -1.08
UACUCAGGAGAGUGGCAAUCACA | – | -1.8 | 1.48 | -0.17 | 0.272 | 0.13 | -0.403 | 0.435 | -0.521 | 0.756 | -0.715 | -0.379 | 0.696 | -0.0737
AAUCGUACAGGGUCAUCCACUU | 0.0793 | – | 0.179 | 0.0979 | 0.283 | 0.0345 | 0.723 | -0.12 | 0.407 | 1.36 | -0.171 | 0.0951 | -0.121 | -0.619
